Data published in ChEMBL document CHEMBL6127081, “Peptide inhibitors targeting Ras and Ras-associated protein-protein interactions” (Eur J Med Chem, 2024).
Values belong to the compound of their own block, whether it stands above or below them. Where a SMILES comes first, the peptide text is derived from it. Bridges are numbered along the chain shown (N, C = ends). [ ]: non-standard residue; d: D form. hArg = N=C(N)NCCCC[C@H](N)C(=O)O; S5 = C=CCCC[C@](C)(N)C(=O)O

Key:
GTPase HRas [1] = molecular target: T1, GTPase HRas (Homo sapiens, UniProt P01112); test: Binding affinity to wild-type H-Ras (unknown origin) assessed as dissociation constant by fluorescence polarization assay
[2] = molecular target: Epidermal growth factor receptor (Homo sapiens) (UniProt P00533); test: Inhibition of EGFR in human NCI-H1299 cells assessed as inhibition in Akt phosphorylation relative to control; type: cell-based; conditions: concentration not given here
GTPase KRas [3] = molecular target: T2, GTPase KRas (Homo sapiens, UniProt P01116, G12V); test: Binding affinity to KRas G12V mutant (unknown origin) assessed as apparent dissociation constant by fluorescence anisotropy analysis; conditions: read-out: Kd(app)
[4] = Binding affinity to GDP bound RAF (unknown origin) assessed as dissociation constant; set-up: species or system Homo sapiens
[5] = molecular target: Epidermal growth factor receptor (Homo sapiens) (UniProt P00533); test: Inhibition of EGFR in human NCI-H1299 cells assessed as inhibition in MEK phosphorylation relative to control; type: cell-based; conditions: concentration not given here
GTPase KRas [6] = molecular target: T3, GTPase KRas (Homo sapiens, UniProt P01116); test: Binding affinity to KRas (unknown origin) assessed as apparent dissociation constant by fluorescence anisotropy analysis; conditions: read-out: Kd(app)
GTPase KRas/RAF1 = GTPase KRas/RAF1 (Homo sapiens, UniProt P01116); test: Inhibition of KRAS/RAF interaction (unknown origin); type: protein assay
GTPase KRas [7] = molecular target: T4, GTPase KRas (Homo sapiens, UniProt P01116, G12D); test: Inhibition of human KRas G12D mutant incubated for 0.5 hrs by absorbance based analysis
GTPase KRas [8] = molecular target: T3, GTPase KRas; test: Binding affinity to KRas (unknown origin) assessed as dissociation constant
GTPase HRas [9] = molecular target: T1, GTPase HRas; test: Binding affinity to HRas (unknown origin) assessed as dissociation constant
SOS1-KRAS [10] = molecular target: SOS1-KRAS (Homo sapiens, UniProt P01116, G12D); test: Inhibition of KRAS G12D mutant/SOS1 (unknown origin) interaction by TR-FRET assay; type: protein-complex assay
GTPase KRas [11] = molecular target: T3, GTPase KRas; test: Binding affinity to GTP bound KRas (unknown origin) assessed as dissociation constant by fluorescence anisotropy assay
GTPase KRas [12] = molecular target: T3, GTPase KRas; test: Binding affinity to GppNHp bound KRas (unknown origin) assessed as dissociation constant by fluorescence anisotropy assay
SOS1-KRAS [13] = molecular target: T5, SOS1-KRAS (Homo sapiens, UniProt P01116); test: Binding affinity to his-tagged N-terminal KRas (1 to 166 residues)/his-tagged catalytic domain SOS (564 to 1049 residues) (unknown origin) interaction extracted from Escherichia coli (BL21) assessed as dissociation constant by fluorescence polarization assay; type: protein-complex assay
SOS1-KRAS [14] = molecular target: T5, SOS1-KRAS; test: Binding affinity to his-tagged N-terminal GDP-bound KRas (1 to 166 residues)/his-tagged catalytic domain SOS (564 to 1049 residues) (unknown origin) interaction extracted from Escherichia coli (BL21) assessed as dissociation constant by fluorescence polarization assay; type: protein-complex assay
SOS1-KRAS [15] = molecular target: T5, SOS1-KRAS; test: Inhibition of his-tagged N-terminal GDP-bound KRas (1 to 166 residues)/his-tagged catalytic domain SOS (564 to 1049 residues) (unknown origin) interaction extracted from Escherichia coli (BL21) by fluorescence based spectroflurometric analysis; type: protein-complex assay
NCI-H358 [16] = test: Cytotoxicity against human NCI-H358 cells measured after 24 hrs by CCK-8 method; type: functional, cell-based; conditions: NCI-H358, 24 h
NCI-H358 [17] = test: Cytotoxicity against human NCI-H358 cells measured after 36 hrs by CCK-8 method; type: functional, cell-based; conditions: NCI-H358, 36 h
GTPase KRas [18] = molecular target: T6, GTPase KRas (Homo sapiens, UniProt P01116, G12C); test: Binding affinity to KRas G12C mutant (unknown origin) assessed as dissociation constant by biolayer interferometry assay
NCI-H358 [19] = test: Cytotoxicity against human NCI-H358 cells measured after 72 hrs by CCK-8 method; type: functional, cell-based; conditions: NCI-H358, 72 h
NCI-H358 [20] = test: Cytotoxicity against human NCI-H358 cells measured after 48 hrs by CCK-8 method; type: functional, cell-based; conditions: NCI-H358, 48 h
GTPase KRas [21] = molecular target: T4, GTPase KRas; test: Inhibition of KRas G12D mutant (unknown origin) by TR-FRET assay
GTPase KRas [22] = molecular target: T4, GTPase KRas; test: Binding affinity to KRas G12D mutant (unknown origin) assessed as dissociation constant by SPR analysis
GTPase KRas [23] = molecular target: T6, GTPase KRas; test: Inhibition of KRas G12C mutant (unknown origin) by fluorescence polarization assay
GTPase KRas [24] = molecular target: T2, GTPase KRas; test: Inhibition of KRas G12V mutant (unknown origin) by fluorescence polarization assay
[25] = Inhibition of KRas Q61H mutant (unknown origin) by fluorescence polarization assay; set-up: species or system Homo sapiens
GTPase KRas [26] = molecular target: T3, GTPase KRas; test: Inhibition of recombinant wild-type KRas (unknown origin) by fluorescence polarization assay
GTPase KRas [27] = molecular target: GTPase KRas (Homo sapiens, UniProt P01116, G12S); test: Inhibition of KRas G12S mutant (unknown origin) by fluorescence polarization assay
GTPase KRas [28] = molecular target: T4, GTPase KRas; test: Inhibition of KRas G12D mutant (unknown origin) by fluorescence polarization assay

SMILES: CC[C@H](C)[C@@H]1NC(=O)[C@H](Cc2cn(CCc3c(C)[nH]c4cc(Cl)cc(Cl)c34)nn2)NC(=O)[C@H](CC(N)=O)NC(=O)[C@H](CCCNC(=N)N)NC(=O)[C@H](Cc2ccccc2)NC(=O)[C@H](CC(C)C)NC(=O)[C@H](C)NC(=O)c2cc3cc(c2)C(=O)NC[C@@H](C(N)=O)NC(=O)[C@H](CCCNC(=N)N)NC(=O)[C@H](CCCNC(=N)N)NC(=O)[C@H](CCCNC(=N)N)NC(=O)[C@H](CCCNC(=N)N)NC(=O)[C@H](Cc2ccc4ccccc4c2)NC(=O)[C@H](Cc2ccccc2)NC(=O)[C@H](CCCCNC3=O)NC1=O
inhibition [2]: 60% | Kd (GTPase KRas [3]): 17 µM | Kd [4]: 0.37 µM | inhibition [5]: 50% | Kd (GTPase KRas [6]): 0.21 µM | IC50 (GTPase KRas/RAF1): 3.4 µM

SMILES: CCCCCCC[C@@H]1NC(=O)[C@H](CO)NC(=O)[C@H](Cc2ccc(F)cc2)NC(=O)[C@H](CC(=O)O)NC(=O)[C@@H]2CCCN2C(=O)[C@H](Cc2c[nH]c3ccccc23)NC(=O)[C@H]2CSCCCSC[C@H](NC1=O)C(=O)N[C@@H](CCCC)C(=O)NCCC(=O)N2
EC50 (GTPase KRas [7]): 0.022 µM

SMILES: CC[C@H](C)[C@H](NC(=O)CN1C/C=C\CCC(=O)N[C@@H](Cc2ccccc2)C(=O)N[C@@H](CCC(=O)O)C1=O)C(=O)N[C@@H](Cc1ccc(O)cc1)C(=O)N[C@@H](CCCNC(=N)N)C(=O)N[C@@H](CC(C)C)C(=O)N[C@@H](CCC(=O)O)C(=O)N[C@@H](CC(C)C)C(=O)N[C@@H](CC(C)C)C(=O)N[C@@H](CCCCN)C(=O)N[C@@H](C)C(=O)N[C@@H](CCC(=O)O)C(=O)N[C@@H](CCC(=O)O)C(=O)N[C@@H](C)C(=O)N[C@@H](CC(N)=O)C(N)=O
Kd (SOS1-KRAS [13]): 28 µM | Kd (SOS1-KRAS [14]): 158 µM | IC50 (SOS1-KRAS [10]): 0.64 µM | IC50 (SOS1-KRAS [15]): 6.9 µM

SMILES: CC[C@H](C)[C@H](NC(=O)CNC(=O)[C@H](Cc1ccccc1)NC(C)=O)C(=O)N[C@@]1(C)CCC/C=C\CCC[C@@](C)(C(=O)N[C@@H](CC(C)C)C(=O)N[C@@H](CCCCN)C(=O)N[C@H](C(N)=O)[C@@H](C)O)NC(=O)[C@H](CC(N)=O)NC(=O)[C@H]([C@@H](C)O)NC(=O)[C@H](CC(C)C)NC1=O (Ac-FGI[S5]LTN[S5]LKT-NH2; staple (Z) 4-8)
IC50 (NCI-H358 [16]): 15.7 µM | IC50 (NCI-H358 [17]): 7.55 µM | Kd (GTPase KRas [18]): 7.67 µM | IC50 (NCI-H358 [19]): 6.68 µM | IC50 (NCI-H358 [20]): 5.75 µM

Next, values leading:

Kd (GTPase HRas [1]): 4.1 µM
SMILES: C=CS(=O)(=O)NCCCC(=O)NCCCC[C@H](NC(=O)[C@H](CC(C)C)NC(=O)C[C@@H](CC(=O)O)NC(=O)[C@H](CC(C)C)NC(=O)[C@H](CCCNC(=N)N)NC(=O)[C@H](Cc1ccc(O)cc1)NC(=O)CC(C)(CC)NC(=O)CN1C/C=C\CCCC(=O)N[C@@H](Cc2ccccc2)C(=O)N[C@@H](CCC(=O)O)C1=O)C(=O)N[C@@H](CCCCN)C(=O)NCCC(=O)N[C@@H](CCC(=O)O)C(=O)N[C@@H](CCC(=O)O)C(=O)N[C@@H](C)C(=O)N[C@@H](CC(N)=O)C(N)=O (stereo not given in full)

Kd (GTPase KRas [8]): 3.92 µM | Kd (GTPase HRas [9]): 3.92 µM | IC50 (SOS1-KRAS [10]): 0.016 µM
SMILES: CC[C@H](C)[C@H](NC(=O)[C@H](Cc1c[nH]c2ccccc12)NC(C)=O)C(=O)NCC(=O)N[C@@H](CCCNC(=N)N)C(=O)N[C@@H](CC(C)C)C(=O)N[C@@H](CC(C)C)C(=O)N[C@H](C(=O)N[C@@]1(C)CCC/C=C\CCC[C@@](C)(C(=O)N[C@@H](CCCNC(=N)N)C(=O)N[C@@H](CC(N)=O)C(=O)NCC(=O)N[C@@H](CC(N)=O)C(N)=O)NC(=O)[C@H](CC(C)C)NC(=O)[C@H](CCCCNC(=N)N)NC(=O)[C@H](CCCNC(=N)N)NC1=O)[C@@H](C)O (Ac-WIGRLLT[S5]R[hArg]L[S5]RNGN-NH2; staple (Z) 8-12)

Kd (GTPase KRas [11]): 1.2 µM | Kd (GTPase KRas [12]): 1.6 µM
SMILES: CC(C)[C@H]1NC(=O)[C@H](CCCNC(=N)N)NC(=O)[C@@H](Cc2ccccc2)NC(=O)[C@@H]2CCCCNC(=O)c3cc(cc(c3)C(=O)N[C@H](Cc3ccc4ccccc4c3)C(=O)N[C@@H](CO)C(=O)N[C@@H](CCC(N)=O)C(=O)N[C@H](Cc3ccc4ccccc4c3)C(=O)N[C@@H](c3ccccc3)C(=O)N2)C(=O)NC[C@@H](C(N)=O)NC(=O)[C@H](CCCNC(=N)N)NCC1=O

IC50 (GTPase KRas [21]): 0.0089 µM | Kd (GTPase KRas [22]): 0.051 µM
SMILES: CC[C@H](C)[C@@H]1NC(=O)[C@H](Cc2ccc(O)cc2)NC(=O)[C@H](CC(C)C)NC(=O)[C@@H]2CCCN2C(=O)[C@@H](NC(=O)[C@H](CCCNC(=N)N)NC(=O)[C@H](CCCNC(=N)N)NC(C)=O)CSSC[C@@H](C(=O)N[C@@H](CCCNC(=N)N)C(=O)N[C@@H](CCCNC(=N)N)C(N)=O)NC(=O)[C@H](C(C)C)NC(=O)[C@@H]2CCCN2C(=O)[C@H](CC(=O)O)NC(=O)[C@H](Cc2ccc(O)cc2)NC(=O)[C@H](CO)NC1=O (Ac-RRCPLYISYDPVCRR-NH2; disulfide 3-13)

IC50 (GTPase KRas [23]): 5 µM | IC50 (GTPase KRas [24]): 5 µM | IC50 [25]: 5 µM | IC50 (GTPase KRas [26]): 5 µM | IC50 (GTPase KRas [27]): 5 µM | IC50 (GTPase KRas [28]): 5 µM
SMILES: CC[C@H](C)[C@H](NC(=O)CNC(=O)[C@H](Cc1ccccc1)NC(=O)[C@H](Cc1ccccc1)NC(=O)[C@H](CCCNC(=N)N)NC(=O)[C@H](CCCNC(=N)N)NC(C)=O)C(=O)N[C@@]1(C)CCC/C=C\CCC[C@@](C)(C(=O)N[C@@H](CC(C)C)C(=O)N[C@@H](CCCCN)C(=O)N[C@H](C(=O)N[C@@H](CCC(=O)O)C(=O)N[C@@H](CCC(=O)O)C(=O)NCC(=O)N[C@@H](CC(N)=O)C(N)=O)[C@@H](C)O)NC(=O)[C@H](CC(N)=O)NC(=O)[C@H]([C@@H](C)O)NC(=O)[C@H](CC(C)C)NC1=O
